Molecular target: β-galactosidase (Escherichia coli, UniProt P00722)
Experiment: Kinetics of β-galactosidase hydrolysis of p-NPBG and its inhibition by diethanolamine
Type: biochemical
Conditions: about 1M diethanolamine, pH 8.6, normal p-NPBG concentrations (up to approximately 5mM)
Procedure: β-galactosidase has a pH optimum of 7.4 for p-nitrophenyl-β-D-galactoside (p-NPBG), although in a single assay format using normal substrate concentrations (up to approximately 5mM), the pH can be raised to 8.6 with only a slight loss (approximately 20%) of activity.

Chain of β-galactosidase (P00722 2-1024): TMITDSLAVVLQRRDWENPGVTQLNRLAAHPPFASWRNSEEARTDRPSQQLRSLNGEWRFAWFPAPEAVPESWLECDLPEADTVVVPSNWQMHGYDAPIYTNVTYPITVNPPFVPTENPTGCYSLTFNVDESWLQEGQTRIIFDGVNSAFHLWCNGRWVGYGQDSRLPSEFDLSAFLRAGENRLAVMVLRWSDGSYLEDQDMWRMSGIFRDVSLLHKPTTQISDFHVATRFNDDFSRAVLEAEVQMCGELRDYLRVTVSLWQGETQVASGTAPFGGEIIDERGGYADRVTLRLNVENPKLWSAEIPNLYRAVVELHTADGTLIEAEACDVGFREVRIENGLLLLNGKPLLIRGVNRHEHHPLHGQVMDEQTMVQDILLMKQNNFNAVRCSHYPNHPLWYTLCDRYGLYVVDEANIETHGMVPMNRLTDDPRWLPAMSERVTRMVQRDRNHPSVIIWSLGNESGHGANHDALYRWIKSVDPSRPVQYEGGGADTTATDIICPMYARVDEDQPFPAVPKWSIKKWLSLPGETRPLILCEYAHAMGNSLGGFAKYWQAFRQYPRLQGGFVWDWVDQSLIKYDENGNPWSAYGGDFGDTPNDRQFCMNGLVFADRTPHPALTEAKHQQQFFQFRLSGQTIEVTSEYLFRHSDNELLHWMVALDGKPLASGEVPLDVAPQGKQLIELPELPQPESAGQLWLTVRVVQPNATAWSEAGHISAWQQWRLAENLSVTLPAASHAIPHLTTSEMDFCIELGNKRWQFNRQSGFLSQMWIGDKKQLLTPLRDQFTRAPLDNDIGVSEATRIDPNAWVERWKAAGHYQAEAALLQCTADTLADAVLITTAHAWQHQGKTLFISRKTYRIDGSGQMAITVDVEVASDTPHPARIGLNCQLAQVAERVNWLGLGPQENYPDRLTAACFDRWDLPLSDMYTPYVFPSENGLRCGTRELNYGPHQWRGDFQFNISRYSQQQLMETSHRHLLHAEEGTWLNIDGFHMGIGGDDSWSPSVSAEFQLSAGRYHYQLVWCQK

OCCNCCO [diethanolamine]
activity of β-galactosidase in the presence of diethanolamine: almost totally abolished
